Measured values as given in the NIST ThermoML archive (doi:10.1021/acs.jced.7b00581).

Conditions: 100 kPa, Liquid; for speed of sound: Single path-length method; for mass density: Vibrating tube method

CCCO [propan-1-ol]
Conditions	mass density [kg/m3]	speed of sound [m/s]
288.15 K	807.834	1242.3
298.15 K	799.597	1205.3
308.15 K	791.399	1170.4
318.15 K	783.121	1137.3
